In the supplement of paper PMC6965134:
± gives the standard deviation of the averaged measurements. Blank lines part the entries; values can stand above or below the compound they belong to.

Test: TIMS collisional cross section (CCS, N2) of the lipid ion; higher = larger ion cross section
Details: ionization mode: negative, one isomer drawn
Procedure: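 Lipid extracts of human plasma (NIST SRM 1950), mouse liver or HeLa cells were separated by nanoflow C18 LC (30 min gradient) and analysed by TIMS-PASEF on a timsTOF Pro. Ion mobility was calibrated with the Agilent tuning mix (negative mode ions) and converted to collisional cross sections (Mason–Schamp, N2).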
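Further: lipids from MTBE extraction, five replicate injections per sample, 100 ms TIMS ramp spanning 0.6–1.95 Vs/cm², lipid identity assigned from PASEF MS/MS spectra.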

SMILES: CCCCCC/C=C\CCCCCCCCCC(=O)O[C@H](COC(=O)CCCCCCCCCCCCC)COP(=O)([O-])OCC[N+](C)(C)C [PC 14:0@_18:1]
TIMS collisional cross section (sample type: Human plasma, ion (formula + adduct): [C40H78NO8P+HCOO] 1-): 286 Å²

SMILES: CC/C=C\C/C=C\C/C=C\C/C=C\C/C=C\CCCC(=O)OC[C@H](COP(=O)(O)OCCN)OC(=O)CCCCCCCCCCCCCCCCC [PE 20:5@_18:0]
TIMS collisional cross section (sample type: Human plasma, ion (formula + adduct): [C43H76NO8P-H] 1-): 276.2 Å²

SMILES: CC/C=C\C/C=C\C/C=C\C/C=C\CCCCC(=O)O[C@H](COC(=O)CCCCCCCCCCCCC)COP(=O)([O-])OCC[N+](C)(C)C [PC 14:0@_18:4]
TIMS collisional cross section (sample type: Human plasma, ion (formula + adduct): [C40H72NO8P+HCOO] 1-): 277.9 Å²

SMILES: CCCCCCCCCCCCCC(=O)OC[C@@H](O)COP(=O)([O-])OCC[N+](C)(C)C [LPC 14:0_0:0]
TIMS collisional cross section (sample type: Human plasma, ion (formula + adduct): [C22H46NO7P+HCOO] 1-): 231.1 ± 0.42 Å² | TIMS collisional cross section (sample type: Human plasma, ion (formula + adduct): [C22H46NO7P-CH3] 1-): 219.7 Å² | TIMS collisional cross section (sample type: Mouse Liver, ion (formula + adduct): [C22H46NO7P+HCOO] 1-): 231.3 Å²

SMILES: CCCCC/C=C\C/C=C\C/C=C\CCCCCCC(=O)OC[C@H](COP(=O)(O)OCCN)OC(=O)CCCCCCCCCCCCCCCCC [PE 20:3_18:0]
TIMS collisional cross section (sample type: Mouse Liver, ion (formula + adduct): [C43H80NO8P-H] 1-): 277.3 Å²

SMILES: CCCCCCCCCCCCC/C=C/[C@@H](O)[C@H](CO)NC(=O)CCCCCCCCCCCCCCCCCCCCC [Cer d18:1_22:0]
TIMS collisional cross section (sample type: Mouse Liver, ion (formula + adduct): [C40H79NO3-H] 1-): 265 Å²

SMILES: CCCCCCCCCCCCCCCCCCOC[C@H](COP(=O)(O)OCCN)OC(=O)CCCCCCCCCCCCCC [PE O- 18:0@_15:0]
TIMS collisional cross section (sample type: Human plasma, ion (formula + adduct): [C38H78NO7P+AcO] 1-): 287.3 Å²

SMILES: CCCCCCCC/C=C\CCCCCCCC(=O)OC(COC(=O)CCCCCCCCCCCCCCCCC)COP(=O)(O)OCCN (centres undefined) [PE 18:0_18:1]
TIMS collisional cross section (sample type: Human plasma, ion (formula + adduct): [C41H80NO8P-H] 1-): 274.6 Å²

SMILES: CCCCC/C=C\C/C=C\C/C=C\C/C=C\CCCCCC(=O)O[C@H](COC(=O)CCCCCCC/C=C\CCCCCC)COP(=O)([O-])OCC[N+](C)(C)C [PC 16:1@_22:4]
TIMS collisional cross section (sample type: Mouse Liver, ion (formula + adduct): [C46H82NO8P+HCOO] 1-): 297.7 Å²

SMILES: CCCCCCCC/C=C\CCCCCCCCCC(=O)OC[C@@H](O)COP(=O)(O)OCCN [LPE 20:1_0:0]
TIMS collisional cross section (sample type: Mouse Liver, ion (formula + adduct): [C25H50NO7P-H] 1-): 222.6 Å²

The next lines start with the values.

TIMS collisional cross section (sample type: Mouse Liver, ion (formula + adduct): [C34H66NO10P-H] 1-): 262.8 Å²
SMILES: CCCCCCCCCCCCCCCC(=O)O[C@H](COC(=O)CCCCCCCCCCC)COP(=O)(O)OC[C@H](N)C(=O)O [PS 12:0@_16:0]

TIMS collisional cross section (sample type: Human plasma, ion (formula + adduct): [C47H87O13P-H] 1-): 300.4 Å²
SMILES: CCCCC/C=C\C/C=C\CCCCCCCCCC(=O)OC[C@H](COP(=O)(O)OC1[C@H](O)[C@H](O)C(O)[C@H](O)[C@H]1O)OC(=O)CCCCCCCCCCCCCCCCC (some centres undefined) [PI 20:2_18:0@]

TIMS collisional cross section (sample type: Human plasma, ion (formula + adduct): [C46H85O13P-CH3] 1-): 293.6 Å²
SMILES: CCCCCCCC/C=C\CCCCCCCC(=O)OCC(COP(=O)(O)OC1C(O)C(O)C(O)C(O)C1O)OC(=O)CCCCCCC/C=C\CCCCCCCCC (centres undefined) [PI 18:1_19:1]

TIMS collisional cross section (sample type: Human plasma, ion (formula + adduct): [C41H76NO7P-H] 1-): 271.2 Å² | TIMS collisional cross section (sample type: Mouse Liver, ion (formula + adduct): [C41H76NO7P-H] 1-): 271.2 Å²
SMILES: CCCCC/C=C\C/C=C\C/C=C\CCCCCCC(=O)O[C@H](CO/C=C\CCCCCCCCCCCCCC)COP(=O)(O)OCCN [PE P- 16:0@_20:3]

TIMS collisional cross section (sample type: Mouse Liver, ion (formula + adduct): [C50H75O10P-H] 1-): 294.8 Å²
SMILES: CC/C=C\C/C=C\C/C=C\C/C=C\C/C=C\C/C=C\CCC(=O)OC[C@H](COP(=O)(O)OC[C@@H](O)CO)OC(=O)CC/C=C\C/C=C\C/C=C\C/C=C\C/C=C\C/C=C\CC [PG 22:6_22:6]

TIMS collisional cross section (sample type: Human plasma, ion (formula + adduct): [C43H82NO7P-H] 1-): 278.6 Å²
SMILES: CCCCC/C=C\C/C=C\CCCCCCCC(=O)O[C@H](CO/C=C\CCCCCCCCCCCCCCCCCC)COP(=O)(O)OCCN [PE P- 20:0@_18:2]
